Measured values taken from patent publication US20240151732A1, “EX VIVO METHOD FOR ANALYSING A TISSUE SAMPLE USING PROTEOMIC PROFILE MATCHING, AND ITS USE FOR THE DIAGNOSIS, PROGNOSIS OF PATHOLOGIES AND FOR PREDICTING RESPONSE TO TREATMENTS” (Université de Bordeaux, priority 2021, published 2024).

Assays:
[1] = tested on: advanced HCC; conditions: SHARP test; proportion of good responders to sorafenib; cited from earlier work
[2] = tested on: HUH7 cells; assay: growth of HUH7 cells; format: cell-based; conditions: in our hands
[3] = tested on: HCC cells; conditions: in vitro and in vivo; Xu et al. [23]; cited from earlier work
[4] = tested on: advanced HCC; conditions: phase III study, first line; Kudo et al. [10]; cited from earlier work

## CNC(=O)c1cc(Oc2ccc(NC(=O)Nc3ccc(Cl)c(C(F)(F)F)c3)cc2)ccn1 [sorafenib]
[1]
  objective response: 2%

## Cc1ncc(C[n+]2csc(CCO)c2C)c(=O)[nH]1 [oxythiamine]
[2]
  effect on the growth of HUH7 cells: did not confirm the effect
[3]
  efficacy in HCC cells: effective

## COc1cc2nccc(Oc3ccc(NC(=O)NC4CC4)c(Cl)c3)c2cc1C(N)=O [lenvatinib]
[4]
  overall survival compared to sorafenib: non-inferiority
